What is called EC50 is the concentration that produces a half-maximal response. High values mean weaker potency, low ones greater potency.

In the test the target is T1, PGE2 receptor EP2 subtype (Mus musculus, UniProt Q62053).
T1 construct: gene Ptger2; endogenous receptor in Neuro-2a cells
The test is described as follows: TR-FRET cAMP assay in Neuro-2a cells (agonist dose-response). It counts as cell-based. (Time-resolved FRET reads energy transfer from a long-lived donor to a nearby acceptor.)

T1 sequence (Q62053 whole entry): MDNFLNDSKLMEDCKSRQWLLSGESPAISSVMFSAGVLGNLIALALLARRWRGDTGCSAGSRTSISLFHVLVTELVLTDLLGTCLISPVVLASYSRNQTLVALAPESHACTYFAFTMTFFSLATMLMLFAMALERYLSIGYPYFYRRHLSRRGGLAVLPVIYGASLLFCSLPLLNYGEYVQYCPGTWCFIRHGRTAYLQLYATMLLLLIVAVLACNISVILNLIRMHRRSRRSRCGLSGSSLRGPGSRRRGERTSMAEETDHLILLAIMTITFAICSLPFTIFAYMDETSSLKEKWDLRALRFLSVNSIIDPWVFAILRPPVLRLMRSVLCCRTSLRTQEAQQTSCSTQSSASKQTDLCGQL

In turn, `CCCC1([C@H](O)C/C=C/[C@H]2[C@H](O)CC(=O)[C@@H]2CCCCCCC(=O)OC)CCC1` [butaprost] returned an EC50 of 0.08 µM.
